Patent US12522594B2, “2-heteroaryl-3-oxo-2,3-dihydropyridazine-4-carboxamides for the treatment of cancer” (Deutsches Krebsforschungszentrum, priority 2017, dated 2026)

Legend:
AHR [1] = molecular target: T1, AHR (Homo sapiens, UniProt P35869); experiment: In vitro assay 1: antagonism in human cell line (transactivation assay, U87 cells prestimulated with kynurenic acid, DRE firefly luciferase reporter); assay type: cell-based; parameters: host or cells: U87 glioblastoma cells, stably transfected with DRE firefly luciferase and renilla reporter constructs; details: 150 uM kynurenic acid, 20 hours, read-out: Assay 1: AHR-luc Hum Antagonism IC50
T1 sequence (P35869 11-848): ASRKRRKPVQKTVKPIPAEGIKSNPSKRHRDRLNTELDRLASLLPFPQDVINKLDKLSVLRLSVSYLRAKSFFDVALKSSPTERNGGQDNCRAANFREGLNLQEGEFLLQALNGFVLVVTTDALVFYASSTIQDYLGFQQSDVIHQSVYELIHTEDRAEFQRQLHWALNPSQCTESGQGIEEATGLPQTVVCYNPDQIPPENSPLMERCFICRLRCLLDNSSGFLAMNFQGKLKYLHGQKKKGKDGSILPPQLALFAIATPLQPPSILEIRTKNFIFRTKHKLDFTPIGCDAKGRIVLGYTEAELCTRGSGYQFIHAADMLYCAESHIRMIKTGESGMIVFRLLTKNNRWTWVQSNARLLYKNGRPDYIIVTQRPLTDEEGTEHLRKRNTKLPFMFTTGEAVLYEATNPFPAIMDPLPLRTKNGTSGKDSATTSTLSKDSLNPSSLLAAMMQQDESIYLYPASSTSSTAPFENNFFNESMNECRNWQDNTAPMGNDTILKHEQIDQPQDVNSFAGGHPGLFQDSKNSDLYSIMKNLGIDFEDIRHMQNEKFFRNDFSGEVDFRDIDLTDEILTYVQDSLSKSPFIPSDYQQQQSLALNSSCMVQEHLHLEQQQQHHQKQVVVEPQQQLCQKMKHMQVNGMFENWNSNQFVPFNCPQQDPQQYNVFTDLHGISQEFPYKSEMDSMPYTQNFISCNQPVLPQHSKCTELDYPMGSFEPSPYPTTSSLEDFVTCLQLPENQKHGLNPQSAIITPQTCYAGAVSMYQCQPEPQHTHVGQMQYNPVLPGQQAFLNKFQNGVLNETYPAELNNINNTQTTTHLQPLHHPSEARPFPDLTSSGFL
Summary of the method: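 U87 glioblastoma cells with endogenous AHR, stably carrying a DRE-driven firefly luciferase reporter and a constitutive renilla reporter. Cells prestimulated with the AHR agonist kynurenic acid before compound addition; data normalized to positive and negative controls.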

AHR [2] = molecular target: T1, AHR; experiment: In vitro assay 2: agonism in human cell line (transactivation assay, U87 cells, DRE firefly luciferase reporter); assay type: cell-based; parameters: host or cells: U87 glioblastoma cells, stably transfected with DRE firefly luciferase and renilla reporter constructs; details: no kynurenic acid, 20 hours, read-out: Assay 2: AHR-luc Hum Agonism IC50
Summary of the method: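 U87 glioblastoma cells with endogenous AHR, stably carrying DRE-driven firefly luciferase and constitutive renilla reporters. 300 uM kynurenic acid served as positive activation control; data normalized to positive and negative controls.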

| SMILES | IC50 (AHR [1]) [nM] | IC50 (AHR [2]) [nM] |
| --- | --- | --- |
| Cn1cc(-n2nc(-c3ccc(OC(F)(F)F)cc3)cc(C(=O)N[C@@H]3COC[C@@H]3O)c2=O)cn1 (racemic) [Example 55, N-[(cis)-4-Hydroxytetrahydrofuran-3-yl]-2-(1-methyl-1H-pyrazol-4-yl)-3-oxo-6-[4-(trifluoromethoxy)phenyl]-2,3-dihydropyridazine-4-carboxamide] | 17.9 | > 20000 |
| COC[C@@H](CO)NC(=O)c1cc(-c2ccc(Cl)cc2)nn(-c2cccnc2)c1=O [Example 75, (−)-6-(4-Chlorophenyl)-N-[(2R)-1-hydroxy-3-methoxypropan-2-yl]-3-oxo-2-(pyridin-3-yl)-2,3-dihydropyridazine-4-carboxamide] | 83.4 | > 20000 |
| O=C(N[C@H](CO)C(F)(F)F)c1cc(-c2ccc(Cl)cc2)nn(-c2cncc(F)c2)c1=O [Example 100, 6-(4-Chlorophenyl)-2-(5-fluoropyridin-3-yl)-3-oxo-N-[(2R)-1,1,1-trifluoro-3-hydroxypropan-2-yl]-2,3-dihydropyridazine-4-carboxamide] | 12.7 | > 20000 |
| Cc1ccc(-c2cc(C(=O)NC(CO)C(C)C)c(=O)n(-c3cnn(C)c3)n2)cc1 (single isomer, unassigned) [Example 3, N-(1-Hydroxy-3-methylbutan-2-yl)-6-(4-methylphenyl)-2-(1-methyl-1H-pyrazol-4-yl)-3-oxo-2,3-dihydropyridazine-4-carboxamide] | 105 | > 20000 |
| C[C@@H](CO)NC(=O)c1cc(-c2ccc(C(F)F)nc2)nn(-c2cnn(C)c2)c1=O [Example 66, 6-[6-(Difluoromethyl)pyridin-3-yl]-N-[(2S)-1-hydroxypropan-2-yl]-2-(1-methyl-1H-pyrazol-4-yl)-3-oxo-2,3-dihydropyridazine-4-carboxamide] | 259 | > 20000 |

Further lines, results first:

| IC50 (AHR [1]) [nM] | IC50 (AHR [2]) [nM] | SMILES |
| --- | --- | --- |
| 115 | > 20000 | O=C(NC(CO)CO)c1cc(-c2ccc(C(F)(F)F)cc2)nn(-c2cccnc2)c1=O [Example 116, N-(1,3-Dihydroxypropan-2-yl)-3-oxo-2-(pyridin-3-yl)-6-[4-(trifluoromethyl)phenyl]-2,3-dihydropyridazine-4-carboxamide] |
| 26.5 | > 20000 | COC[C@H](CO)NC(=O)c1cc(-c2ccc(C(F)(F)F)cc2)nn(-c2cccnc2)c1=O [Example 111, N-[(2S)-1-Hydroxy-3-methoxypropan-2-yl]-3-oxo-2-(pyridin-3-yl)-6-[4-(trifluoromethyl)phenyl]-2,3-dihydropyridazine-4-carboxamide] |
| 571 | > 20000 | C[C@H](NC(=O)c1cc(-c2ccc(CF)cc2)nn(-c2cnn(C)c2)c1=O)C(C)(C)O [Example 284, 6-[4-(Fluoromethyl)phenyl]-N-[(2S)-3-hydroxy-3-methylbutan-2-yl]-2-(1-methyl-1H-pyrazol-4-yl)-3-oxo-2,3-dihydropyridazine-4-carboxamide] |
| 139 | > 20000 | CC(C)(O)CNC(=O)c1cc(-c2ccc(Cl)cc2)nn(-c2cncnc2)c1=O [Example 277, 6-(4-Chlorophenyl)-N-(2-hydroxy-2-methylpropyl)-3-oxo-2-(pyrimidin-5-yl)-2,3-dihydropyridazine-4-carboxamide] |
| 0.852 | > 20000 | O=C(N[C@H](CO)CF)c1cc(-c2ccc(C(F)(F)F)cc2)nn(-c2cnsc2)c1=O [Example 203, N-[(2R)-1-Fluoro-3-hydroxypropan-2-yl]-3-oxo-2-(1,2-thiazol-4-yl)-6-[4-(trifluoromethyl)phenyl]-2,3-dihydropyridazine-4-carboxamide] |
| 118 | > 20000 | O=C(NC[C@H](O)CF)c1cc(-c2ccc(OC(F)(F)F)cc2)nn(-c2cccnc2)c1=O [Example 296, N-[(2S)-3-Fluoro-2-hydroxypropyl]-3-oxo-2-(pyridin-3-yl)-6-[4-(trifluoromethoxy)phenyl]-2,3-dihydropyridazine-4-carboxamide] |
